Experimental data published in patent publication US20240060990A1, “SPATIAL SIGNALING NETWORKS FOR MULTIPLEXED DRUG RESPONSE MEASUREMENT AND MODELING” (Georgia Tech Research Corporation, priority 2022, published 2024).

Tests used:
p-EGFR (Tyr1086) = test: p-EGFR immunofluorescence across four drug concentrations; format: cell-based, human; settings: PC9 cells, 48 hours
Protocol: (§1) Following that, the cells were then fixed and permeabilized with 1.6% formaldehyde in 1×PBS for 10 minutes at RT and 0.5% Triton X-100 for 10 minutes at RT, respectively (FIG. 10A). The cells were then blocked using a cell staining medium (CSM) containing 5d. […] PC9 cells were stained with p-EGFR and β-tubulin overnight followed by 1-hour incubation of secondary antibodies at RT, and 15 mins DAPI staining. The cells were then imaged at 40× magnification, and the cell number was analyzed using ImageJ. […] The coverslip was mounted to an acrylic holder for multiple cycles of staining.

p-AKT (S473) = settings: PC9 cells; cited from earlier work
PC9 cells = test: Pearson correlation of single-cell mean marker intensity (RapMIF); format: cell-based, human
Protocol: Correlation analysis: Correlation between pairs of cells was performed based on the mean intensity level for a pair of markers across all the cells (FIGS. 5A-5F). The correlation between pairwise markers at the cell level was investigated to identify co-expression patterns. For the correlation analysis, the Pearson correlation of pairwise markers at the single-cell level was quantified by using the mean intensity distribution for pairs of markers across the cells (FIGS. 5E-5F, FIGS. 7C-7D). The per cell mean intensity was first extracted for all markers to obtain a vector of mean intensities per cell. The nuclei and cytosol region were then separated for each cell and extracted one vector of mean intensities in the cytosol and another vector of mean intensities in the nuclei per cell. To confirm the bleaching efficiency, the mean intensity correlations of the before and after bleach images was compared. The 3-way correlation was calculated with the adjusted-R^2 value of the linear regression model of one marker predicted by the two others. Specifically, the expression of the maker on the z-axis was predicted by the two markers on the x and y-axis using a 3D scatter plot.

AKT/mTOR pathways = test: RapMPI on HCC827 xenograft tissue; format: in vivo, mouse; settings: 2-month vs 1-week treatment
From the text: (§2) Tissues: HCC827-derived mouse xenografts were provided by Dr. Sun Shi-yong (Emory University). […] Mice were then euthanized, and the tumor was embedded in OCT for sectioning. The OCT tissues were fixed in acetone, rehydrated, permeabilized in 0.4% Triton X-100, blocked, and ready for multiplexed experiments.
(§3) The staining settings were the same as the RapMPI in cell cultures. The blocking step between cycles for tissue multiplexing was skipped to avoid hiding the signals. The tissue samples were mounted with 10% glycerol made in 1×PBS and covered the slide using a 24×50 mm No. 1 coverslip (3322, Thermo Scientific) to prevent evaporation during imaging. To de-coverslip the sample after imaging, the slide was placed in a vertical jar containing 1×PBS for around 10 minutes, and the coverslip was released due to gravity.
(§4) To avoid loss of PPI information due to cell segmentation error, a nearest-distance-based assignment method was used to assign the PPI signal detected and not in any cell segmentation mask. For each PPI signal not in any segmented cell regions, the nearest cell mask pixel was observed and if the distance was lower than a user-defined value, it was assigned to the cell to which the nearest cell mask pixel belonged.

MEK/ERK signaling = test: RapMPI on HCC827 xenograft tissue; format: in vivo, mouse; settings: 2-month vs 1-week treatment
From the text: as §2, §3, §4

cyclin E/CDK2 = test: RapMPI on HCC827 xenograft tissue; format: in vivo, mouse; settings: 1-week treatment (responders)
From the text: as §2, §3, §4

HCC827 cells = test: PPI network motif frequency in HCC827 cells; format: cell-based, human
From the text: Spatial Graph Construction: For each detected PPI in a cell, the corresponding 2D or 3D localization was extracted, and a node was assigned in the created graph. The node labels are assigned by creating a one-hot encoding of the corresponding PPI detected for the node. Delaunay triangulation was used to create edges connecting the nodes in the graph and therefore create a PPI spatial graph for each cell. The models are trained in a multi-instance learning framework, that is a cell label for each instance was assigned based on the cell treatment condition of a group.

p-ERK(T202/Y204) = test: p-ERK immunofluorescence in HCC827 cells; format: cell-based, human; settings: 100 nM
Protocol: as §1, with “respectively.” for “respectively (FIG. 10A).”, “0.5% BSA, and 0.02% Sodium Azide in PBS.” for “5d.”, “HCC827” for “PC9”, “p-ERK” for “p-EGFR and β-tubulin”, “10” for “15”, “intensity levels were analyzed.” for “cell number was analyzed using ImageJ.”

SMILES: C=CC(=O)Nc1cc(Nc2nccc(-c3cn(C)c4ccccc34)n2)c(OC)cc1N(C)CCN(C)C [Osimertinib]
- p-EGFR expression, 60 nM vs 40 nM (p-EGFR (Tyr1086)): relatively higher expression under 60 nM than 40 nM
- p-EGFR expression (p-EGFR (Tyr1086); 0 to 20 nM to 40 nM, normalized to β-tubulin): decreased the p-EGFR expression as the drug concentration increased from 0 to 20 nM to 40 nM
- p-AKT (S473) level (p-AKT (S473)): effectively inhibit the p-AKT (S473) level
- correlation of WNT1 with p-AKT (PC9 cells; 40 nM): high correlation with p-AKT in the presence of the drug
- correlation between p-EGFR and non-p-β-catenin (PC9 cells; 40 nM vs control): higher positive correlation between p-EGFR and non-p-β-catenin compared to the control
- correlation of p-EGFR with p-AKT (single-cell mean intensity) (PC9 cells; 40 nM, 48 hours): high correlation to p-AKT after drug treatment
- correlation of WNT1 with p-EGFR (PC9 cells; control and 40 nM): low correlation with p-EGFR in both conditions
- AKT/mTOR pathways in pan-cytokeratin positive regions (AKT/mTOR pathways): downregulating
- MEK/ERK signaling in pan-cytokeratin positive regions (MEK/ERK signaling): enhanced
- cyclin E/CDK2 PPI in responders (cyclin E/CDK2): downregulation
- motif 9 (p-ERK/c-Myc & p-ERK/c-Myc) autoregulation (HCC827 cells; 5 PPI network): Increased autoregulation
- three-node motif 17 (Tead1/Yap&Tead1/Yap& p-ERK/c-Myc) (HCC827 cells; 5 PPI network): more interactions
- autoregulation of cyclin D1/CDK2 in motif 0 and motif 45 (HCC827 cells; 9 PPIs dataset): inhibited
- interaction between sox2/oct4 and Cyclin D1/CDK4 (motif 2, motif 47) (HCC827 cells; 9 PPIs dataset): downregulation
- p-ERK level (p-ERK(T202/Y204); 6-hour treatment): suppressed initially
- p-ERK level (p-ERK(T202/Y204); 12-hour treatment): increased
